Data from patent publication US11634594B2, “Antimicrobial agent for coatings and finishes” (SWIMC LLC, priority 2016, dated 2023).

System: challenge pool of 7 bacteria: P. aeruginosa, E. aerogenes, E. coli, K. pneumonia, S. aureus, B. subtilis and S. enterica
Experiment: ASTM D 2574 (modified) on pigment dispersions, split samples aged at room temperature / 3 weeks 60° C. / 6 weeks 60° C.
Type: cell-based
Protocol: ASTM D 2574: Standard Test for Resistance of Emulsion Paints in the Container to Attack by Microorganisms.
The test is conducted in accordance with the ASTM standard, except for the following modifications noted for the preparation of the inoculum and test procedure.
Preparation of Inoculum: There are 7 bacteria used in forming the challenge pool, they include: P. aeruginosa (ATCC #10145), E. aerogenes (ATCC #13048), E. coli (ATCC #10536), K. pneumonia (ATCC #10031), S. aureus (ATCC #6538), B. subtilis (ATCC #6051) and S. enterica (ATCC #13312). Bacterial cultures are prepared 24 hours before the test is scheduled to start by selecting one colony from a plate with a […], inoculating loop, adding it to 10 mL of sterile tryptic soy broth tubes and placing it on the shaking incubator. A 1 mL of each of the seven organisms is combined into a pool in a conical tube. A 1 mL of the created pool is then added to a 9 mL of sterile tryptic soy broth in a conical tube to get an inoculum concentration of ˜10^8 CFU/mL.
Test Procedure: A 1:100 dilution of the inoculum is added into each sample (ex. […], into 40 mL of sample) which provides a ˜10^6 CFU/mL challenge. The samples are then placed into 35° C. incubator for 24 hours to grow new organisms before each inoculation. The samples are inoculated on Days: 0, 2, 7 and 14. The samples are put back into incubator after each inoculation. […]

bismuth aluminate
effectiveness compared with isothiazolone antimicrobial agent (Table 4): at least as effective as the isothiazolone antimicrobial agent
preventing microbial growth (initial results): effective in preventing microbial growth
